Converted amounts (≈) assume the structure as drawn.
Assays:
[1] = test system: Trypanosoma cruzi, Tulahuen CL2 strain; assay: Antitrypanosomal activity assay, T. cruzi in MRC-5 cells; format: cell-based; details: T. cruzi Tulahuen CL2 in MRC-5 cells, 7 days
Protocol: (§1) The compound set was tested against the following parasites: intra-erythrocytic forms in human red blood cells of P. falciparum K1 strain (malaria), [16], [32], [33], [35], bloodstream forms of T. brucei Squib 427 strain (human African trypanosomiasis, HAT), [31], [32], [34], intracellular amastigotes of T. cruzi Tulahuen CL2, beta- galactosidase strain (Chagas' Disease), [32]–[35], intracellular amastigotes of L. infantum MHOM/MA(BE)/67 (leishmaniasis), [32]–[36], larval and/or adult worms of S. mansoni Puerto Rican strain (schistosomiasis), [31], [37], microfilariae of B. malayi (lymphatic filariasis), [30] and microfilariae of O. ochengi or O. lienalis (onchocerciasis), [30]. It should be noted that the human pathogen for onchocerciasis is Onchocerca volvulus, but due to lack of a suitable in vitro assay or animal models for this pathogen, O. ochengi and lienalis, which are both animal pathogens, are used in the primary and secondary assays, [30].
171 of the 744 actives passed the initial criterion of IC50<1 µg/ml for T. cruzi Tulahuen CL2, beta galactosidase strain maintained on MRC-5SV2 cells in MEM medium (MRC-5 cell/parasite inoculum: 4.10^3 cells/well+4.10^4 parasites/well), supplemented with […] L-glutamine, 16.5 mM NaHCO3 and 5% heat inactivated fetal calf serum. […] Of these, 109 were eliminated [structures #1–6] for poor selectivity versus mammalian cells (SI<50) and an additional 11 due to undesirable chemical attributes. The remaining 51 compounds were sorted into 10 series (45 compounds) and 6 singletons [structures # 21, 22]. Two of these series with excellent potency against T. cruzi, limited activity against other protozoa and SI values >50 (not shown), have been transferred to DNDi for further evaluation.

[2] = test system: Brugia malayi microfilariae; assay: Anti-Brugia malayi microfilariae motility assay; format: cell-based; details: B. malayi microfilariae
Protocol: as §1
(§2) As result of logistics issues attributed to lost shipments of some compounds, only 6160 molecules of the 10,000 compound set were tested, at a uniform molarity, against B. malayi, including 6063 against microfilariae and 756 against adult worms (these sets overlap). […] Greatest priority was given to compounds with activity against adult worms, as no macrofilaricide is available for use in control campaigns and the activity of ivermectin as a microfilaricidal agent is unlikely to be bettered in a new series. Of the test set, 53 compounds met the activity criterion for microfilariae (100% motility reduction) and an additional 58 inhibited adult worm motility ≥75% at 10 µM. These were titrated to determine an IC50 value to support prioritization. Following cytotoxicity triage [structures # 1, 4, 6], eight compounds met the activity criterion for adult worms (i.e., 100% inhibition of adult worm motility), four of which were also active against microfilariae [structures # 14, 29, 30, 32]. […] Of these, the most interesting was TDR76699 [structure # 29]; this compound has very good activity against adult worms (IC50 = 0.1 µg/ml) and is also active against microfilariae (IC50 = 0.7 µg/ml). None of the other compounds tested against adult parasites had IC50 values ≤0.5 µg/ml, a threshold which would reduce concerns about specificity. However, a few series [structures # 31, 33, 34], appear interesting for future medicinal chemistry projects.

[3] = test system: MRC-5 cell line (diploid human embryonic lung fibroblast); assay: Cytotoxicity on MRC-5 cells; format: cell-based
Excerpt: [table] An important part of the screen is the evaluation of all compounds for cytotoxicity using the diploid human embryonic lung fibroblast MRC-5 cell line (Figure 2). Further evaluation of cytotoxicity also takes advantage of the assays for intracellular protozoan parasites, as in the case of L. infantum and T. cruzi, which include murine peritoneal macrophage host cells and MRC-5SV2 human lung fibroblast cells, respectively, in the culture system.

[4] = test system: Trypanosoma brucei brucei Squib-427 strain; assay: Antitrypanosomal activity assay, T. brucei (resazurin); format: cell-based; details: T. brucei Squib 427 bloodstream forms, 72 h
Protocol: as §1

[5] = test system: Plasmodium falciparum K1 strain; assay: Anti-Plasmodium activity assay (Malstat); format: cell-based; details: P. falciparum K1, 72 h
Protocol: as §1

[6] = test system: Schistosoma mansoni adult worms; assay: Anti-Schistosoma activity assay (adult worm motility); format: cell-based; details: S. mansoni adult worms; 12.5 µM (method: 10 µg/ml or 12.5 µM)
Protocol: as §1
A subset of 9478 of the 10,000 compound collection was tested against the Puerto Rican strain of S. mansoni. 6144 of these were tested in a primary larval assay followed by the ex-vivo adult secondary screen. The remainder was screened only in the adult assay. […] The 65 compounds were sorted by chemical attractiveness, potency against adult schistosomes in culture, selectivity against other parasites, and toxicity to mammalian cells in culture. Based on this analysis, 5 series encompassing 13 compounds were chosen for advancement through the African Network for Drug and Diagnostic Innovation (ANDI) and other PDPs. Representative structures [structures # 13, 27, 28] are shown (Table S1). These compounds are unburdened by obvious toxic moieties, have acceptable compliance with the Lipinski rules, are selectively active against schistosomes and are not overtly toxic to mammalian cells. It has unfortunately not been possible to titrate all of these hits in culture; of about 50% for which such data are available, none has an IC50<2 µg/ml (which is the initial potency criteria).

[7] = test system: Brugia malayi adult worms; assay: Anti-Brugia malayi adult worm motility assay; format: cell-based; details: B. malayi adult worms
Excerpt: as §2, with “In some cases, particularly for the antifilarial screens, a second whole organism test with adult stage parasites is included prior to animal evaluation. The decision to utilize microfilariae for primary screening was based on throughput and biological considerations. It is difficult to acquire enough adult filariae to enable screening more than 1000 compounds per year, a rate far lower than needed for timely evaluation of the available compounds. In light of this situation, and considering that we are targeting molecules that are active on both stages, microfilariae screening was adopted as a suitable filter to identify compounds with potential macrofilaricidal activity. As” for “As”, “Of the test set, 53 compounds met the activity criterion for microfilariae (100% motility reduction) and an additional 58 inhibited adult worm motility ≥75% at 10 µM.” left out

[8] = test system: Onchocerca (lienalis or ochengi) microfilariae; assay: Anti-Onchocerca microfilariae motility assay; format: cell-based, Onchocerca lienalis or O. ochengi
Protocol: as §1
4240 compound s were screened against O. ochengi at the University of Buea in Cameroon, while a subset of […] compounds was successfully screened in UK by the Northwick Park Institute for Medical Research against O. lienalis, at a uniform molarity. […] After removing molecules that were toxic to mammalian cells (IC50<5 µg/ml), 292 molecules remained for further evaluation. […] From the latter sub-set, […] distinct chemical series and one singleton [structure # 35] were active against both microfilaria and adults. One series [structures # 2, 3] was deemed not interesting due to lack of selectivity against mammalian cells. The remaining series is being transferred to ANDI for further progression as part of a new collaboration.

| Compound | CHA IC50 [1] [µg/mL] | LF/MF % Motility Reduction at 12.5µM [2] [%] | CYT IC50 [3] [µg/mL] | HAT IC50 [4] [µg/mL] | MAL IC50 [5] [µg/mL] | SCH % Motility Reduction at 12.5µM [6] [%] | LF/AW % Motility Reduction at 12.5µM [7] [%] | ONC/MF % Motility Reduction at 12.5µM [8] [%] | IC50 microfilariae ([2]; titration) [µg/mL] | IC50 adult worms ([7]; titration) [µg/mL] |
| --- | --- | --- | --- | --- | --- | --- | --- | --- | --- | --- |
| O=C(Nc1nc2c(s1)CSc1ccccc1-2)C1CCCN1S(=O)(=O)c1cccs1 (stereo not shown) [TDR83016] | 0.5 | 100 | 1.88 | 0.45 | 3.71 | 100 | 0 | 100 | – | – |
| COc1cccc2sc(Nc3nnc(-c4cccs4)o3)nc12 [TDR77585] | 0.31 | 100 | 1.83 | 0.35 | 1.25 | 0 | 50 | – | – | – |
| CCOC(=O)c1ccc(NC(=O)CSc2nnc(NC(=O)C34CC5CC(CC(C5)C3)C4)s2)cc1 [TDR76705] | >15.02 | 100 | >15.02 | >15.02 | >15.02 | 0 | 100 | 33.3 | – | – |
| CN(C)CCN(C(=O)c1cccc(N2C(=O)CCC2=O)c1)c1nc2ccc(Br)cc2s1 [TDR79337] | 4.94 | – | >16.14 | 0.36 | 1.45 | 33 | 0 | 0 | – | – |
| Cc1cccc(-n2nc3c(c2NC(=O)Nc2cccc(Cl)c2)CSC3)c1 [TDR76699] | 9.48 | 100 | >11.55 | >11.55 | >11.55 | 25 | 100 | 33 | 0.7 (≈ 1.82 µM) | 0.1 (≈ 0.26 µM) |
| O=C(COc1cccc2c1CCN(Cc1ccccc1F)C2=O)N1CCC(Cc2ccccc2)CC1 [TDR77144] | 0.56 | 100 | 4.56 | 0.47 | 4.54 | 0 | 100 | 0 | – | – |
| O=C(COc1ccc(Cl)cc1Cl)Nc1nnc(C23CC4CC(CC(C4)C2)C3)s1 [TDR76660] | >13.15 | 100 | >13.15 | >13.15 | >13.15 | 0 | 0 | 0 | – | – |
| O=C(Nc1nc2c(s1)CSc1ccccc1-2)C1COc2ccccc2O1 (stereo not shown) [TDR77035] | 0.5 | 33 | 2.62 | 0.37 | 4.75 | 100 | 0 | 100 | – | – |
| CCC(=O)c1c(NC(=O)c2ccc(C)cc2)sc2c1CCN(CC)C2 [TDR76871] | 0.48 | 33.3 | >11.79 | 0.32 | 1.87 | 0 | 22.3 | 0 | – | – |
| O=C(Nc1nc2c(F)cc(F)cc2s1)c1nc2ccccc2s1 [TDR77323] | >10.42 | 100 | >10.42 | – | >10.42 | 0 | 50 | – | – | – |
| CC(C)(C)n1ncc2c(=O)n(CCC(=O)NCc3ccccc3Cl)cnc21 [TDR84851] | >11.64 | 20 | >11.64 | >11.64 | >11.64 | 100 | – | 0 | – | – |
| COC(=O)c1c(NC(=O)c2cc3ccccc3oc2=O)sc2c1CCN(Cc1ccccc1)C2 [TDR76873] | 0.64 | 100 | 8.92 | >15.33 | >15.33 | 0 | 100 | 40 | – | – |
| CCCn1/c(=N/C(=O)C2=COCCO2)sc2c(C)ccc(OC)c21 [TDR82272] | 0.89 | 0 | >10.45 | >10.45 | 3.18 | 0 | – | 20 | – | – |

Source: publication PMC3243694, “Integrated Dataset of Screening Hits against Multiple Neglected Disease Pathogens” (PLoS Neglected Tropical Diseases, 2011)
